Measured values from patent EP1172442A1, “VITAMIN D DERIVATIVES AND PROCESS FOR PRODUCING THE SAME” (MERCIAN CORPORATION, priority 1999, dated 2000).

How the values were obtained:
[1] = system: VDR (chicken small intestine receptor); assay: Binding ability to vitamin D receptor (VDR), radio receptor assay (RRA), competition with 3H-1,25(OH)2D3; settings: relative value of B/B0 50% value, 1,25(OH)2D3 taken to be 100; 4°C for 3 hours
Description: Binding ability to VDR was examined by the following radio receptor assay (RRA) method.
1,25(OH)2D3 and each specimen were serially diluted at from 10^-11 M to 10^-6 M. 20µL of a [26,27-^3H]-1,25-dihydroxyvitamin D3 (^3H-1,25(OH)2D3) solution and 60 µL of 1,25(OH)2D3 or each specimen solution were added in a small test tube, and 0.5 mL of a VDR (chicken small intestine receptor) solution was added and mixed, and then allowed to stand at 4°C for 3 hours. Then, after 0.125 mL of a dextran-active carbon suspension was added and mixed, the mixture was allowed to stand on ice for 30 minutes, ^3H-1,25(OH)2D3 unbound to VDR was removed by centrifugation at 3000 rpm for 15 minutes, and then the quantity of ^3H-1,25 (OH)2D3 bound to VDR was measured using 0.5 mL of the supernatant.
The binding ability to VDR of each specimen was evaluated by calculating and comparing the B/B0 50% value. […] The VDR binding ability was shown in Table 1 as a relative value of each specimen when B/B0 50% value of 1,25(OH)2D3 is taken to be 100.

[2] = system: DBP (rat serum diluted with a barbital acetate buffer); assay: Binding ability to vitamin D-bound protein (DBP), competitive protein binding assay (CPBA), competition with 3H-25(OH)D3; settings: relative value of B/B0 50% value, 1,25(OH)2D3 taken to be 100; 4°C for 1 hour
Description: The binding ability to DBP was evaluated using the following competitive protein binding assay (CPBA). 1,25(OH)2D3 and each specimen were diluted to concentrations from 10^-11 M to 10^-5 M. 50 µL of a [26,27-^3H]-25-hydroxyvitamin D3 (^3H-25(OH)D3) solution and 100 µL of 1,25(OH)2D3 or each specimen solution were placed in a small test tube, and 1 mL of a DBP (rat serum diluted with a barbital acetate buffer) solution was added and mixed, and then allowed to stand at 4°C for 1 hour. Then, after 0.5 mL of a dextran-active carbon suspension was added and mixed, the mixture was allowed to stand on ice for 10 minutes, ^3H-25(OH)D3 unbound to DBP was removed by centrifugation at 3000 rpm for 15 minutes, and then the quantity of ^3H-25(OH)D3 bound to DBP was measured using 1 mL of the supernatant.
The binding ability to DBP of each specimen was evaluated by calculating and comparing the B/B0 50% value.

| Compound | Binding ability to VDR [1] | Binding ability to DBP [2] |
| --- | --- | --- |
| C=C1C[C@@H](O)[C@H](O)C/C1=C/C=C1\CCC[C@]2(C)[C@@H]([C@H](C)CCCC(C)(C)O)CC[C@@H]12 [Example 1(1), 2α,25-dihydroxyvitamin D3] | 32.480 | 11433.718 |
| C=C1/C(=C\C=C2/CCC[C@]3(C)[C@@H]([C@H](C)CCCC(C)CO)CC[C@@H]23)C[C@@H](O)C[C@@H]1O (stereo partly drawn) [Example 2, 1α,26-dihydroxyvitamin D3] | 107.557 | 168.529 |
| CC(C)C(O)CC[C@@H](C)[C@H]1CC[C@H]2/C(=C/C=C3/C[C@@H](O)C[C@H](O)/C3=C\F)CCC[C@]12C (stereo partly drawn) [Example 4(1), 19-fluoro-1α,24-dihydroxyvitamin D3] | 72.878 | 23.665 |
| C[C@H](CCCC(C)(C)O)[C@H]1CC[C@H]2/C(=C/C=C3/C[C@@H](O)C[C@H](O)/C3=C\F)CCC[C@]12C [Example 4(2), 19-fluoro-1α,25-dihydroxyvitamin D3] | 62.386 | 35.792 |
| CC(CO)CCC[C@@H](C)[C@H]1CC[C@H]2/C(=C/C=C3/C[C@@H](O)C[C@H](O)/C3=C\F)CCC[C@]12C (stereo partly drawn) [Example 4(3), 19-fluoro-1α,26-dihydroxyvitamin D3] | 29.129 | 35.257 |
| C=C1CC[C@H](O)C(F)(F)/C1=C/C=C1\CCC[C@]2(C)[C@@H]([C@H](C)CCC(O)C(C)C)CC[C@@H]12 (stereo partly shown) [Example 5(1), 4,4-difluoro-24-hydroxyvitamin D3] | 81.860 | 16.633 |
| C=C1CC[C@H](O)C(F)(F)/C1=C/C=C1\CCC[C@]2(C)[C@@H]([C@H](C)CCCC(C)CO)CC[C@@H]12 (stereo partly shown) [Example 5(3), 4,4-Difluoro-26-hydroxyvitamin D3] | 34.067 | 28.106 |
| C=C1/C(=C\C=C2/CCC[C@]3(C)[C@@H]([C@H](C)CCCC(C)(C)O)CC[C@@H]23)C(F)(F)[C@@H](O)C[C@@H]1O [Example 6(2), 4,4-difluoro-1α,25-dihydroxyvitamin D3] | 92.716 | 26.684 |
